Assays:
BaF3-ETV6-NTRK3 = target: T1, BaF3-ETV6-NTRK3 (Homo sapiens, UniProt Q16288); test: Cell proliferation inhibition (CCK-8), BaF3-ETV6-NTRK3 stable strain; assay type: cell-based, mouse; details: BaF3-ETV6-NTRK3, 72 hours
T1 construct: fused on or other part: P41212 (Transcription factor ETV6)
How it was run: (§1)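 Ba/F3 cells stably electroporated with ETV6-NTRK3, CD74-NTRK1 or ETV6-NTRK2, selected with G418 and grown without IL3, then cloned by limiting dilution.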

[1] = Rat hepatocyte stability experiment; assay type: in vitro ADME; details: for Residual percentage (%) 0 min / Residual percentage (%) 5 min / Residual percentage (%) 15 min / Residual percentage (%) 30 min / Residual percentage (%) 60 min / Residual percentage (%) 120 min: average value; for half-life at 1 μM: rat, rat hepatocytes (suspension)
Experimental: In William medium E, dilute the 37° C. rat hepatocyte suspension to an appropriate density (viable cell density=2×10^6 cells/mL). In addition, a 2× quantification solution (the concentration of the test compound was 2 μM) was additionally prepared in William's medium E. The hepatocyte solution and 2× quantification solution were preheated in a water bath of 37° C. 40 µL of the preheated hepatocyte solution (2×10^6 cells/mL) was added into the designated wells for 5, 15, 30, 60, and 120 min, and add 40 µL of the preheated 2× quantification solution and start timing. An assay plate was placed in a 37° C., 5% CO2 incubator with shaking at 110 rpm. At 5, 15, 30, 60, and 120 minutes, 240 μL of ACN containing IS was added to each well. The plate was then sealed and stored in a −35° C. freezer. After collecting at all time points, the plate was shaken for 2 minutes and then centrifuging was performed for 15 minutes at 6000 rmp. 100 μL of supernatant from each well was transferred to a 96-well sample plate containing 100 μL of water for LC/MS analysis, determination of compound concentrations, calculation of rate constants and half-lives.

TRKC = target: T2, TRKC (Homo sapiens, UniProt Q16288); test: Z′-LYTE kinase activity assay, TRKC; assay type: biochemical; details: ATP 50 uM
T2 construct: purchased life technologies PV3617
T2 sequence (Q16288 32-839): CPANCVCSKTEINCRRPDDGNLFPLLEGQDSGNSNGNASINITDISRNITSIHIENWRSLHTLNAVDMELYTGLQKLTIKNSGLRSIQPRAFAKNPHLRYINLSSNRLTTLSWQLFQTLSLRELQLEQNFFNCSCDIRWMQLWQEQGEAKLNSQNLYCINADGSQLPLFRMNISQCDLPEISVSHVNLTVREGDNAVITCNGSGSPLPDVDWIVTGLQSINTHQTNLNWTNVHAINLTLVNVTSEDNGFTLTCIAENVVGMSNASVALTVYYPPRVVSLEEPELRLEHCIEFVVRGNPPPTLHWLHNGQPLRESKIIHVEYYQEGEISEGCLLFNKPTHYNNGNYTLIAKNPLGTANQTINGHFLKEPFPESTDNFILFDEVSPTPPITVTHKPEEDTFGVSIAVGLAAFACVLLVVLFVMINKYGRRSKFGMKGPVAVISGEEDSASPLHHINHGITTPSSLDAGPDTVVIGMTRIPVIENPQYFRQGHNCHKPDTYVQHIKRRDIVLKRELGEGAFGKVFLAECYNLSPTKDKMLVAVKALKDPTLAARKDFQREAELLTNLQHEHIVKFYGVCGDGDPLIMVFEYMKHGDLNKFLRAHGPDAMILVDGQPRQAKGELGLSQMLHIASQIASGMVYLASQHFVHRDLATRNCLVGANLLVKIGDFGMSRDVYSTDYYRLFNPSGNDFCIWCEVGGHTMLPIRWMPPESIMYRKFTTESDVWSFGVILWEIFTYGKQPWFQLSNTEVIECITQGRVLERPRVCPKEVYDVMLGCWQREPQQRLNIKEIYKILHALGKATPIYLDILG
How it was run: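 Recombinant TRK kinase tested in a Z′-LYTE FRET assay with 2 μM Tyr 01 peptide substrate in 50 mM HEPES pH 7.5, 10 mM MgCl2, 1 mM EGTA, 0.01% BRIJ-35. IC50 obtained by curve fitting.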

[2] = Pharmacokinetic evaluation in SD rats; assay type: in vivo
Experimental: Pharmacokinetics and oral bioavailability were tested in SD rats. According to the solubility of the drug, a single dose was administered orally, intravenously or by intraperitoneal injection. Animal blood samples were collected at different time points (0, 0.5, 1, 2, 4, 6, 8, and 24 hours), anticoagulated with heparin, and centrifuged to take the supernatant. Blood samples were analyzed by HPLC-MS. DAS2.1 was used for data analysis to detect half-life (T1/2), maximum blood concentration (Cmax), time to peak (Tmax), area under the drug-time curve (AUC), and bioavailability (BA) and other pharmacokinetic data.

TRKA = target: T3, TRKA (Homo sapiens, UniProt P04629); test: Z′-LYTE kinase activity assay, TRKA; assay type: biochemical; details: ATP 400 uM
T3 construct: purchased life technologies PV3144
T3 sequence (P04629 440-796 limits assumed): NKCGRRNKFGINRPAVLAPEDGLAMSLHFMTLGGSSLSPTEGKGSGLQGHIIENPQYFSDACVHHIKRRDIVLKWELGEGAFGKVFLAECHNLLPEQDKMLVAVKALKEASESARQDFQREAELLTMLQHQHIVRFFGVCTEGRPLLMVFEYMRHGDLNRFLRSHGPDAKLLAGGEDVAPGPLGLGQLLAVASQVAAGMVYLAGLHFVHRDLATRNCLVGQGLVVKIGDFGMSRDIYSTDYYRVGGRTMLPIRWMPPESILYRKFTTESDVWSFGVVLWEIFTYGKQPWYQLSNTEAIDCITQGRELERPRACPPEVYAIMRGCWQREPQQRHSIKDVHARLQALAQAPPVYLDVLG
How it was run: (§2)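 IC50 values were fitted to inhibition calculated from the emission-ratio-based phosphorylation ratio relative to negative control, across a compound concentration gradient.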

BaF3-ETV6-NTRK2 = target: T4, BaF3-ETV6-NTRK2 (Homo sapiens, UniProt Q16620); test: Cell proliferation inhibition (CCK-8), BaF3-ETV6-NTRK2 stable strain; assay type: cell-based, mouse; details: BaF3-ETV6-NTRK2, 72 hours
T4 construct: fused on or other part: P41212 (Transcription factor ETV6)
T4 sequence (Q16620 538-822 limits assumed): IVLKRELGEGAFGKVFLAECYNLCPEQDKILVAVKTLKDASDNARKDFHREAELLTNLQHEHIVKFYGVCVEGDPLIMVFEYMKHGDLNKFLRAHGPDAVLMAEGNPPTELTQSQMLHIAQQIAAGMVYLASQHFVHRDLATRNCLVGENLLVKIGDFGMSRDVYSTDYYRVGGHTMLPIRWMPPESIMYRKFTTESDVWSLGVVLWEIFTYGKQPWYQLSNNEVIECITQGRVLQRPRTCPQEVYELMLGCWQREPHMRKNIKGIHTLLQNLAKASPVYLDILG
How it was run: as §1

TRKs (TRK1, TRK2, TRK3) = test: Kinase activity on TRKs, summary statements; assay type: biochemical; details: summary statement
Text: Kinase activity assay: Z′-LYTE™ technology (detection by fluorescence, enzyme-conjugated format, based on the difference in sensitivity of phosphorylated and non-phosphorylated peptides to proteolytic cleavage) was applied, and using the principle of fluorescence resonance energy transfer (FRET), a Z′-LYTE™ FRET peptide substrate (Z′-LYTE™ Tyrosine 1 Peptide Substrate, Invitrogen, PV3190), and a secondary reaction were used to detect the inhibitory activity of the compounds on TRKs (TRK1, TRK2, TRK3) (life technologies, PV3144, PV3616, PV3617).
Enzymatic reaction: In a 384-well plate, 5 μL of an enzyme-substrate system (50 mM HEPES pH 7.5, 0.01% BRIJ-35, 10 mM MgCl2, 1 mM EGTA, 2 μM Tyr 01 Peptide Substrate) was added and 5 nL of compound (concentration gradient) was transferred thereto by using the echo520 ultramicro liquid pipetting system. After shaking for 10-20 min at room temperature, 200 nL, 12.5 nL and 25 nL of ATP (final concentrations are 400 uM, 25 uM and 50 uM, respectively) were transferred by using the echo520 ultramicro liquid pipetting system. After shaking and mixing, centrifuging was performed. A reaction was carried out at 30° C. in the dark for 1.5 hours.
Assay reaction: 2.54 of Development Solution (1:128 dilution) was added in each well, and incubated at 37° C. in the dark for 1 hour, and then 5 μL of Stop Reagent was added.
Plate reading: fluorescence signals were detected using a Perkin Elmer EnVision Multimode Plate Reader (excitation at 400 nm, and emission at 460 nm, and 535 nm).
Calculation: the inhibition rate of each well was calculated by the fully active well and control signal wells. The data were analyzed as follows:
Phosphorylation ratio=1−{(emission ratio×F100%−C100%)/[C0%−C100%+emission ratio×(F100%−F0%)]}×100;
Inhibition rate=100×(1−compound phosphorylation ratio/negative control phosphorylation ratio).
IC50 values were calculated by using GraphPad Prism 5.0 software.

TRKB = target: T5, TRKB (Homo sapiens, UniProt Q16620); test: Z′-LYTE kinase activity assay, TRKB; assay type: biochemical; details: ATP 25 uM
T5 construct: purchased life technologies PV3616
T5 sequence (Q16620 32-822): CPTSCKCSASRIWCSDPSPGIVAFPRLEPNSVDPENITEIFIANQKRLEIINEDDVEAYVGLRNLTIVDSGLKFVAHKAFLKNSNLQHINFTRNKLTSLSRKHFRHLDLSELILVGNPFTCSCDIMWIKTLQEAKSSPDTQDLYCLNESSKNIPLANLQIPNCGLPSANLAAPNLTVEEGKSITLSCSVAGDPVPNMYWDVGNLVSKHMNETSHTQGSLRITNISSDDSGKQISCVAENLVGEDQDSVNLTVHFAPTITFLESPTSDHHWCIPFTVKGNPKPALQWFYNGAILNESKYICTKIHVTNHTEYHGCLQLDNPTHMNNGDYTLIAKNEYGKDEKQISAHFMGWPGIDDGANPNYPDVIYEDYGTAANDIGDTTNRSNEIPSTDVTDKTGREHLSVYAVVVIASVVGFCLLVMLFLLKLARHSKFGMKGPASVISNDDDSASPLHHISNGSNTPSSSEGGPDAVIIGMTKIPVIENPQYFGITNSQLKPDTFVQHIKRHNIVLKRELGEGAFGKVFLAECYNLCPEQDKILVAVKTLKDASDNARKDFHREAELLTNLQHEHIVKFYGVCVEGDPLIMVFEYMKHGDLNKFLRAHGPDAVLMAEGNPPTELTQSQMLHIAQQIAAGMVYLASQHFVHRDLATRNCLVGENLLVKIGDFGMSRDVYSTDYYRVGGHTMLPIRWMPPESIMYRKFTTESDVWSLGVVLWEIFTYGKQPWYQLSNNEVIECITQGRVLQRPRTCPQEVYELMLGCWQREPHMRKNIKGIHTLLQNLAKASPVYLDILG
How it was run: as §2

Ba/F3-TRK stable strains = test: Cell proliferation of Ba/F3-TRK stable strains, summary statements; assay type: cell-based, mouse; details: summary statement
Experimental: The brief steps of stable strain construction are as follows: construct a pCDNA3.1(+) plasmid vector carrying genes such as CD74-NTRK1, ETV6-NTRK2 and ETV6-NTRK3; the plasmid was electroporated into Ba/F3 cells using the Amaxa® Cell Line Nucleofector® Kit V; 48 hours after electroporated, G418 with a final concentration of 1000 μg/ml was added for screening for two weeks, and then IL3 was removed, and continued screening to obtain polyclonal stable strains; then single clones were selected by a limiting dilution method. The stable strains were then identified using positive drugs, WB and gene sequencing; and the monoclonal clones that were identified as completely correct may be used for the study of cell proliferation inhibitory activity of inhibitors.
Cell proliferation inhibition activity study: the cells in the logarithmic growth phase were seeded into 96-well plates at 8000-12000 cells/well, and inhibitors at different concentrations (0-10 μM) were added the next day, and incubation was continued for 72 hours; then 10 μL of CCK-8 reagent was added to each well, and the incubation was continued for 1-3 hours; and then use a super microplate reader to measure their absorbance values at 450 nm and 650 nm. The half-inhibition concentration (IC50) was calculated using GraphPad Prism 8.0.0.

BaF3-CD74-NTRK1 = target: T6, BaF3-CD74-NTRK1 (Homo sapiens, UniProt P04629); test: Cell proliferation inhibition (CCK-8), BaF3-CD74-NTRK1 stable strain; assay type: cell-based, mouse; details: BaF3-CD74-NTRK1, 72 hours
T6 construct: fused on or other part: P04233 (HLA class II histocompatibility antigen gamma chain)
T6 sequence (P04629 510-796 limits assumed): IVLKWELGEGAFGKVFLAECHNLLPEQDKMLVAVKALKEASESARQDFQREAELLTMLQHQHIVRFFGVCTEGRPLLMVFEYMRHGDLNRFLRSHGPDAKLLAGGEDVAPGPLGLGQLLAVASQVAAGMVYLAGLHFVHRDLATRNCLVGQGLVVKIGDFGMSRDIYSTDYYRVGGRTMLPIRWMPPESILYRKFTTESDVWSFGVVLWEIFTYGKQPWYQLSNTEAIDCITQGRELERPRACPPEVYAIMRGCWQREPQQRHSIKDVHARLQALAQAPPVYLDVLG
How it was run: as §1

T1 sequence (Q16288 whole entry, the tested form may be a part): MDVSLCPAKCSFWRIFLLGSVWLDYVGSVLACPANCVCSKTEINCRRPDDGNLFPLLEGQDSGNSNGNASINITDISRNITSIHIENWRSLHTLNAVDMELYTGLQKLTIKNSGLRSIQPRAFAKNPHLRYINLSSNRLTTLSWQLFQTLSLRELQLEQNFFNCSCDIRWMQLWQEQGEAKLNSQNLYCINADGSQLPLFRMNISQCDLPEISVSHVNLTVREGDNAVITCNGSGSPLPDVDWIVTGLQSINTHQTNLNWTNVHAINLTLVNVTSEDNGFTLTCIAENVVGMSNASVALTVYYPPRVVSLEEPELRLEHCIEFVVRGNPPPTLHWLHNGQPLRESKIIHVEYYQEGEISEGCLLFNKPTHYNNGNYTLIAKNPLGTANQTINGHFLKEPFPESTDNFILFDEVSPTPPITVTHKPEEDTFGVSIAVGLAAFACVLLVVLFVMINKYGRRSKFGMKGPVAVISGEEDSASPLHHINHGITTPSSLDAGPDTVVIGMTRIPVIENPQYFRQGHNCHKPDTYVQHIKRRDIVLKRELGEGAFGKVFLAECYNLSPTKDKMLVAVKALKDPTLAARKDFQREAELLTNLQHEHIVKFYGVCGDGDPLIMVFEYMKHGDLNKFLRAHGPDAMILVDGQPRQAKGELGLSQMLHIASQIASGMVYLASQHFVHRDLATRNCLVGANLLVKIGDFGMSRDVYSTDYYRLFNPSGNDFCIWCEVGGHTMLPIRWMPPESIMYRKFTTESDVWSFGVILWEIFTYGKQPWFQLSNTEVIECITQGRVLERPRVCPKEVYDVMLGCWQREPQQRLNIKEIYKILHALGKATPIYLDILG

Compound	IC50 (BaF3-ETV6-NTRK3) [nM]	Residual percentage (%) 0 min ([1]; rat hepatocytes) [%]	Residual percentage (%) 5 min ([1]; rat hepatocytes) [%]	Residual percentage (%) 15 min ([1]; rat hepatocytes) [%]	Residual percentage (%) 30 min ([1]; rat hepatocytes) [%]	Residual percentage (%) 60 min ([1]; rat hepatocytes) [%]	Residual percentage (%) 120 min ([1]; rat hepatocytes) [%]	half-life at 1 μM [1] [h]	IC50 (BaF3-ETV6-NTRK2) [nM]	inhibitory activity against TRKs kinase (in words) (TRKs (TRK1, TRK2, TRK3))	inhibitory activity against cell proliferation of the Ba/F3-TRK stable strains (in words) (Ba/F3-TRK stable strains)	IC50 (BaF3-CD74-NTRK1) [nM]	also measured
O=S(=O)(Nc1ccc2[nH]nc(/C=C/c3ccccn3)c2c1)c1cc(F)cc(F)c1 [DYX-165, (E)-3,5-difluoro-N-(3-(2-(pyridin-2-yl)vinyl)-1H-indazol-5-yl)benzenesulfonamide]	43.7	100.00	92.73	84.16	73.15	59.81	58.02	2.57	48.9	strong inhibitory activity	strong inhibitory activity	126	metabolic stability (in words) ([1]; rat hepatocytes, comparison with DYX244-1 and DYX318): better metabolic stability; IC50 (TRKC): 2.4 nM; Half-life ([2]; Sprague-Dawley, rat, plasma, oral administration, 25 mg/kg, read-out: Half-life (converted)): 1.54 h; Area under the drug-time curve (0-t) ([2]; oral administration, 25 mg/kg): 1035.70 µM·h; Area under the drug-time curve (0-∞) ([2]; oral administration, 25 mg/kg): 1035.78 µM·h; Maximum blood concentration ([2]; oral administration, 25 mg/kg): 91.56 µM; Time to Peak ([2]; oral administration, 25 mg/kg): 4.00 h; oral absorption properties (in words) ([2]; oral, comparison with DYX244-1): better oral absorption properties; IC50 (TRKA): 1.3 nM; IC50 (TRKB): 3.2 nM
C[C@@H](Nc1cnc2[nH]nc(/C=C/c3ccccn3)c2c1)c1cc(F)cc(F)c1 [DYX-318, (R,E)-N-(1-(3,5-difluorophenyl)ethyl)-3-(2-(pyridin-2-yl)vinyl)-1H-pyrazolo[3,4-b]pyridin-5-amine]	9.1	100.00	27.83	12.24	1.36	0.27	0.20	0.0452	33.6	strong inhibitory activity	strong inhibitory activity	9.6	–
